These results are taken from PMC5492227 (European journal of medicinal chemistry, 2017).

pIC50: −log10 of the molar value.

For this assay, the target named is T1, EPAC1 (Homo sapiens, UniProt O95398).
T1 sequence (O95398 1-923): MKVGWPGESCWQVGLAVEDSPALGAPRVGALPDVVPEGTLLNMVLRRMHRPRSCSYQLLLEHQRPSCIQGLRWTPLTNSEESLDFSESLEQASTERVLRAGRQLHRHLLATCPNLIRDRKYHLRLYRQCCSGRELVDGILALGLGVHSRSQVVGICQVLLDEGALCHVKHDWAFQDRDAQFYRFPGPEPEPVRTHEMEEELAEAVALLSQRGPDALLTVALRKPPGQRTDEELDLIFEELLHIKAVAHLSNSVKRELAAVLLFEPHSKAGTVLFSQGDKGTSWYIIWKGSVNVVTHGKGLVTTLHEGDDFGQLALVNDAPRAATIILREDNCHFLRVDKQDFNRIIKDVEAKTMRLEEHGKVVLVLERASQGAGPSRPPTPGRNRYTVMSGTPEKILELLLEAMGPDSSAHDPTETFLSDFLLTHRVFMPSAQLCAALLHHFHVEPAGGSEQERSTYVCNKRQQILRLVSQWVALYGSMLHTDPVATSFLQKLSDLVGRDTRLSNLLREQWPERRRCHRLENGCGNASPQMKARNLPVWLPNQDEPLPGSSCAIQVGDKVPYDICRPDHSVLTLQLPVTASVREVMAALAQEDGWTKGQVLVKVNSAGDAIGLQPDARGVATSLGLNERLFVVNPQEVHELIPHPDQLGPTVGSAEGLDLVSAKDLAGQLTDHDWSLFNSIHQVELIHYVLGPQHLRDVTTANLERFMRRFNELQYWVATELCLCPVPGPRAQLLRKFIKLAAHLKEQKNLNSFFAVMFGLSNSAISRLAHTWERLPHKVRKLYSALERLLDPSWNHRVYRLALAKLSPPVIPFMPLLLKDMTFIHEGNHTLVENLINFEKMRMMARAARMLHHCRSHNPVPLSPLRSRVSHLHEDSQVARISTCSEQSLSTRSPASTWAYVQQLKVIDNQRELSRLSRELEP
Put plainly: biochemical. The class given is biochemical.

The pIC50 is the negative decadic logarithm of the IC50, by convention in mol/L.

With `N#C/C(=N\Nc1ccc(Cl)c(C(F)(F)F)c1)C(=O)c1cc(-c2ccccc2)on1` [Compound 14, N-(3-Trifluromethyl-4-chlorophenyl)-2-oxo-2-(5-phenylisoxazol-3-yl)acetohydrazonoyl cyanide], the “fold increase in potency compared to that of 1 (EPAC1)” value was “about 5 fold”. On to `N#C/C(=N\Nc1cccc(Cl)c1)C(=O)c1cc(-c2ccco2)on1` [Compound 25, N-(3-Chlorophenyl)-2-(5-(furan-2-yl)isoxazol-3-yl)-2-oxoacetohydrazonoyl cyanide], for which the pIC50 (Rap1b-bGDP EPAC1 IC50, purified recombinant full-length EPAC1, 20 μM cAMP, mean ± SD of at least three independent experiments) is 5.44.
